Each structure is given as a SMILES string. Some results are limits rather than exact numbers.

As a reminder, the IC50 is the point on the concentration scale where inhibition reaches its midpoint.

The target in test [1] is T1, Protein deacetylase HDAC6 (Homo sapiens, UniProt Q9UBN7).
T1 sequence (Q9UBN7 whole entry): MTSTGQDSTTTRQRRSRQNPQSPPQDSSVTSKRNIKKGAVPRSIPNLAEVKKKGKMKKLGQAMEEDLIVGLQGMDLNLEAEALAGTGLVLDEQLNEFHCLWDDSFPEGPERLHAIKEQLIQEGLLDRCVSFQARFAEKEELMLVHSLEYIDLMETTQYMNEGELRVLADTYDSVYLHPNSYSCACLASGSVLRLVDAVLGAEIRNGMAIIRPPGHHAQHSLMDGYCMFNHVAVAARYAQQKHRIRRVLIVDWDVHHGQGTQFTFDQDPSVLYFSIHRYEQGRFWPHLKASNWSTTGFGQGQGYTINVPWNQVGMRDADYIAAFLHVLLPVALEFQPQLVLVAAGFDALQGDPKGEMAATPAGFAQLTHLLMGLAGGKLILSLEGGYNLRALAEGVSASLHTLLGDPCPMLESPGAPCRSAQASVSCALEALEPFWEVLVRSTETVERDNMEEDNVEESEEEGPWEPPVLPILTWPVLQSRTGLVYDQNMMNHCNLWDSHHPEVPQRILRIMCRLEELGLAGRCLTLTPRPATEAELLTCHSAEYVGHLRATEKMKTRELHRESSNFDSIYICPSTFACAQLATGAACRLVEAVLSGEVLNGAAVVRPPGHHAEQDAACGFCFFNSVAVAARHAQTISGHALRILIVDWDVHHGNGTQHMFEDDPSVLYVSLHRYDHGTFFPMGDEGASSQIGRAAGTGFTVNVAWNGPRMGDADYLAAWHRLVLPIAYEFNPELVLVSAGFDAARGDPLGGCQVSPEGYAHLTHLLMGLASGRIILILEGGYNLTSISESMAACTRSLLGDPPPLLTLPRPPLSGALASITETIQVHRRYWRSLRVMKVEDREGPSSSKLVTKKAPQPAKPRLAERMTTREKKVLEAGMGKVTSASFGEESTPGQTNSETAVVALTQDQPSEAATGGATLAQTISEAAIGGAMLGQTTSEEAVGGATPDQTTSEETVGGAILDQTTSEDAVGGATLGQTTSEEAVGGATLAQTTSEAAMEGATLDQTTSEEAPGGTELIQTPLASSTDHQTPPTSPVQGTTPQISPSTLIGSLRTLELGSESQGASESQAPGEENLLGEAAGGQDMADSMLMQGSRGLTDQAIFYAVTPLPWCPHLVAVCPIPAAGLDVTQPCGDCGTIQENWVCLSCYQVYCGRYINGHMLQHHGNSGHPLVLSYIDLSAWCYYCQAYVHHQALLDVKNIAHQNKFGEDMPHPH
Kind of test: Inhibition of recombinant full length human HDAC-6 expressed in baculovirus expression system using acetyl-Gly-Ala-Lys(acetyl)-AMC as substrate after 2 hrs by fluorescence microplate reader analysis.

The target in test [2] is Histone deacetylase 1 (Homo sapiens, UniProt Q13547). Nature of the test: Inhibition of recombinant full length human HDAC-1 expressed in baculovirus expression system using acetyl-Gly-Ala-Lys(acetyl)-AMC as substrate after 2 hrs by fluorescence microplate reader analysis.
Chain of Histone deacetylase 1 (Q13547 whole entry): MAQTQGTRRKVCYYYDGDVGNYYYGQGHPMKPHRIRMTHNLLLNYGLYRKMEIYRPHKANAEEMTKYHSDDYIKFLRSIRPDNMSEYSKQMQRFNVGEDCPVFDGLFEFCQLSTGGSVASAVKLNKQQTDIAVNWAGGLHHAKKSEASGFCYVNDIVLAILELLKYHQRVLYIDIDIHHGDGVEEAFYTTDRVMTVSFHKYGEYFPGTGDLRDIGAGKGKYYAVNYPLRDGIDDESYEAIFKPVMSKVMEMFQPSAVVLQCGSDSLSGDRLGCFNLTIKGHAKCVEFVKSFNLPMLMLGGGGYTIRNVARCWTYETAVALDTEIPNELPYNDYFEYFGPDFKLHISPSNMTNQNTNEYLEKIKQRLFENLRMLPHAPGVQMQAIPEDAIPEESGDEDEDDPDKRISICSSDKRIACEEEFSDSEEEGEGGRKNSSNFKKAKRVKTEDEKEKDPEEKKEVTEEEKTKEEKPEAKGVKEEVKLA

Consider `C[C@H](CN(C)Cc1ccccc1)NC(=O)c1ccc(-c2noc(C(F)(F)F)n2)nc1`, for which the IC50 in test [1] and in test [2] was more than 10 µM in each case.

Regarding `CCN(CC)C[C@@H](C)NC(=O)c1ccc(-c2noc(C(F)(F)F)n2)nc1`, the IC50 in test [1] and in test [2] was more than 10 µM throughout.

The values above are taken from ChEMBL document CHEMBL2413070, “Histone Deacetylase 4 (HDAC4) Inhibitors: A Promising Treatment for Huntington's Disease” (ACS Med Chem Lett, 2013).
